# Results from BindingDB's records for doi:10.1021/acschembio.6b00382 (Institut de Ge´ne´tique et de Biologie Mole´culaire et …, 2016).
# Experiments:
# Conditions in all cases: pH 7
# [1] = target: Aldo-keto reductase family 1 member B1 (Homo sapiens, UniProt P15121); test: IC50-Activity Assay (AR)
# Protocol: (§1) The IC50-activity assays were carried out on the basis of the quantification of the NADPH consumption that takes place when the enzyme catalyzes the conversion of the aldehyde substrate into the alcohol product. […] The final reaction volume was 600 μL per reaction. All compounds were dissolved in dimethyl sulfoxide (DMSO), and the corresponding solution was added to the cell to be assayed in a final concentration of 2% (v/v) DMSO and incubated for 5 min at 25 °C prior to the addition of the substrate. The reaction was initiated by the addition of 1 mM glyceraldehyde, and the decrease in optical density at 340 nm was monitored for at least 3 min at 25 °C in a UV−vis spectrophotometer (Cary 400 Bio (Varian)).
# [2] = target: T1, Aldo-keto reductase family 1 member B10 (Homo sapiens, UniProt O60218); test: IC50-Activity Assay (AKR1B10)
# T1 sequence (O60218 whole entry): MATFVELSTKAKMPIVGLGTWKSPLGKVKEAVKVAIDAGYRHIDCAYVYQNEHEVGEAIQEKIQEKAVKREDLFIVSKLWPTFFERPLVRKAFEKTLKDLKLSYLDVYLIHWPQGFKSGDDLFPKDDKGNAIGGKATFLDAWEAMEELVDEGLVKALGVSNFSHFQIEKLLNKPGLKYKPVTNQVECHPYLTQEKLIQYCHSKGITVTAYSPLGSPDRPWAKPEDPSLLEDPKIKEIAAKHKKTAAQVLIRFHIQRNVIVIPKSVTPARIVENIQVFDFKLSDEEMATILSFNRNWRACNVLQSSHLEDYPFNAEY
# Protocol: as §1, with “60” for “1”, “glyceraldehyde and 0.2 mM pyridine-3-aldehyde,” for “glyceraldehyde,”, “opticaldensity” for “optical density”
# [3] = target: T1, Aldo-keto reductase family 1 member B10; test: IC50-Activity Assay (AR)
# Protocol: as §1
# [4] = target: Aldo-keto reductase family 1 member B10 [K125R,V301L] (Homo sapiens, UniProt O60218, K125R/V301L); test: IC50-Activity Assay (AR)
# Sequence of Aldo-keto reductase family 1 member B10 [K125R,V301L] (O60218 whole entry K125R/V301L): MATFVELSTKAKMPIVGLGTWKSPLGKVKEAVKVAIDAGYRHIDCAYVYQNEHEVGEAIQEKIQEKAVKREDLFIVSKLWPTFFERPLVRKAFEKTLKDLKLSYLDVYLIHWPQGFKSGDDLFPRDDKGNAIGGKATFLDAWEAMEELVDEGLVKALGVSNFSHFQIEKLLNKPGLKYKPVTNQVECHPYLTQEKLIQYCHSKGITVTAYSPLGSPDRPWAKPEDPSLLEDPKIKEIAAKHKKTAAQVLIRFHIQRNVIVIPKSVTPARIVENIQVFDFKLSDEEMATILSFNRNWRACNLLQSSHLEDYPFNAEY
# Protocol: as §1
SMILES,IC50 [1] [nM],IC50 [2] [nM],IC50 [3] [nM],IC50 [4] [nM]
O=C(O)COc1cc(F)ccc1C(=S)NCc1ccc(Br)cc1F [IDD594],3,–,–,–
COc1ccc2c(C(=S)N(C)CC(=O)O)cccc2c1C(F)(F)F [N-{[6-methoxy-5-(trifluoromethyl)naphthalen-1-yl]carbonothioyl}-N-methylglycine],–,1.2,–,–
O=C(O)COc1cc(Cl)ccc1C(=O)NCc1c(Br)c(Br)c(Br)c(Br)c1Br [2-(5-chloro-2-(((perbromophenyl)methyl)carbamoyl)phenoxy)acetic acid],21700,30,80,80
"COc1c(Br)c(Br)c(Br)c(Br)c1Cn1c(=O)ccn(CC(=O)O)c1=O [2-(2,4-dioxo-3-(2,3,4,5-tetrabromo-6-methoxybenzyl)-3,4-dihydropyrimidin-1(2H)-yl)acetic acid]",–,–,–,450
CC1=C(CC(=O)O)c2cc(F)ccc2/C1=C\c1ccc([S@@+](C)[O-])cc1 [cis-5-Fluoro-2-methyl-1-((p-methylsulfinyl)benzylidene)indene-3-acetic acid],–,–,–,2690
O=C(O)COc1cc(Cl)ccc1C(=O)NCc1ccc(Br)cc1 [MK181],–,3700,4500,4500
O=C(O)COc1cc(Cl)ccc1C(=O)NCc1ccc(Br)cc1F [IDD388],–,2700,4400,4400
"O=C(O)COc1cc(Cl)ccc1C(=O)NCc1c(Br)cc(Br)cc1Br [2-(5-chloro-2-((2,4,6-tribromobenzyl)carbamoyl)phenoxy)acetic acid]",21400,430,1000,1000
O=C(O)COc1cc(Cl)ccc1C(=O)NCc1c(F)c(F)c(Br)c(F)c1F [MK319],–,3400,7000,7000
